The results in this text go back to BindingDB's records for doi:10.1016/j.ejmech.2018.12.027 (National Taiwan University, 2019).

This assay is described as follows: Inhibition of influenza A virus (A/WSN/1933(H1N1)) neuraminidase using MUNANA as fluorogenic substrate preincubated for 10 mins followed by substrate addition and measured after 15 mins by fluorometric assay.
As a reminder, the IC50 is the point on the concentration scale where inhibition reaches its midpoint. As to `CCC(CC)O[C@@H]1C=C([B-](F)(F)F)C[C@H](N)[C@H]1NC(C)=O`, the IC50 came out at 3400 nM. As for `CCC(CC)O[C@@H]1C=C(B(O)O)C[C@H](NC(=N)N)[C@H]1NC(C)=O`, the figure is 28 nM; as for `CCC(CC)O[C@@H]1C=C(S(C)(=O)=O)C[C@H](N)[C@H]1NC(C)=O`, 180 nM. As for `CCCCOS(=O)(=O)C1=C[C@@H](OC(CC)CC)[C@H](NC(C)=O)[C@@H](NC(=N)N)C1`, the figure is 3.3 nM.

`CCC(CC)O[C@@H]1C=C([B-](F)(F)F)C[C@H](NC(=N)N)[C@H]1NC(C)=O`: inhibition was half-maximal at 20 nM (IC50). As for `CCC(CC)O[C@@H]1C=C(S(=O)(=O)O)C[C@H](NC(=N)N)[C@H]1NC(C)=O`, the IC50 stood at 1.3 nM. This IC50 lies about 15-fold lower than the previous one. Regarding `CCC(CC)O[C@@H]1C=C(S(=O)(=O)O)C[C@H](N)[C@H]1NC(C)=O`, the half-inhibitory concentration (IC50) came to 1.8 nM. `CCC(CC)O[C@@H]1C=C(S(=O)(=O)CCc2ccncc2)C[C@H](N)[C@H]1NC(C)=O`: the IC50 came out at 330 nM. Turning to `CCCCOS(=O)(=O)C1=C[C@@H](OC(CC)CC)[C@H](NC(C)=O)[C@@H](N)C1`, inhibition was half-maximal at 27 nM (IC50).

Compound `CCC(CC)O[C@@H]1C=C(S(=O)(=O)CCc2ccncc2)C[C@H](NC(=N)N)[C@H]1NC(C)=O` gave a half-maximal inhibitory concentration (IC50) of 9.8 nM.
